# EP3597653A1, “CYCLIC INHIBITORS OF HEPATITIS B VIRUS” (IRBM S.P.A., priority 2018, dated 2020)
# System: HBV
# Assay: HBV inhibition assay in HepAD38 cells (extracellular HBV DNA by direct qPCR)
# Type: cell-based
# Conditions: Hepatitis B virus, 8-point dose-response curve, 96 hours, read-out: HBV inh EC50
# Description: HepAD38 cell line (Ladner et al., Antimicrob Agents Chemother, 1997, 41, 1715-20) was used for HBV inhibition assays. HepAD38 is a subclone, derived from Hepatoblastoma cell line HepG2 (ATCC® Number: HB-8065™), that expresses HBV genome under the control of a tetracycline-responsive promoter in a TET-OFF system: addition of tetracycline suppresses HBV replication, while its removal switches on the process allowing HBV viral particles release in the cell supernatant. HepAD38 cell line is maintained in DMEM/F12, supplemented with 10% of fetal bovine serum, 1% of glutamine, 1% of penicillin/streptomycin, 0.4 mg/ml G418 and 0,3 ug/ml tetracycline. For the HBV inhibition assay, doxycycline-free medium is used in order to allow virion production.
# HBV inhibition activity in vitro was performed in 96 multiwell plates. During the initial (primary) screening compounds were first tested in triplicates at concentrations of 0.1µM, 0.5µM amd 1µM. For selected compounds, an 8-point dose-response curve can be obtained using 1:2 serial dilutions (starting from 2.5 µM, 1.25µM or 0.4 µM, depending on the degree of inhibition observed during the primary screening). From the dose-response curves, half maximal effective concentration (EC50) can be calculated (see also below).
# In more detail, compounds - typically dissolved in DMSO stock solutions - are diluted to 2x the final desired concentration in 100 µl of the above medium (without doxycycline) and plated in three replicates in the 96-well plates.
# Simultaneously, HepAD38 cells - extensively pre-washed in tetracycline-free medium in order to induce HBV production - are suspended at 2*10^4 cells in 100 µl of tetracycline-free medium and added to each well of the plate, to yield a final assay volume of 200 µl DMSO - used for stock solutions and compounds dilutions - which is always present in the assays at a final concentration of 0.5%.
# Plates are then incubated 96 hours at 37°C and then subjected to cell viability assay in order to define compounds cytotoxicity and to extracellular HBV quantification in order to evaluate antiviral activity of compounds. Cytotoxicity is assessed by a commercial fluorescence assay that measures the metabolic activity of cells, directly related to cell viability (Cell Titer Blue, Promega). Anti-HBV activity was evaluated by quantification of extracellular HBV DNA with direct qPCR. In particular, supernatant was collected and centrifuged for cell debris clarification, viral DNA was extracted from virions by addition of lysis buffer (1 mM 1,4-dithiothreitol, 0.2% sodium dodecyl sulphate) and incubated at 95°C for 10 min. Samples were then diluted 1:40 and real time PCR amplification was performed with SYBR green assay (Power SYBR™ Green PCR Master Mix-Thermo Fisher Scientific) and specific HBV primer (HBV-DF:5'-[…]-3' (SEQ ID No. 1), HBV-DR:5'-[…]-3' (SEQ ID No. 2)).
# All HBV inhibition or antiviral activity data are typically reported in percent (%) relative to a non-treated reference sample. Excel and Graphpad Prism programs are typically used for data elaboration and EC50 calculation.
row,SMILES,EC50 [nM]
1,"O=C(Nc1cc(F)c(F)c(F)c1)c1cc(F)c2c(c1)S(=O)(=O)NCN2 [Example E72, 5-fluoro-N-(3,4,5-trifluorophenyl)-3,4-dihydro-2H-benzo[e][1,2,4]thiadiazine-7-carboxamide 1,1-dioxide]",> 1000
2,"O=C(Nc1cc(F)c(F)c(F)c1)c1cc2c(cc1F)NCNS2(=O)=O [Example E71, 6-fluoro-N-(3,4,5-trifluorophenyl)-3,4-dihydro-2H-benzo[e][1,2,4]thiadiazine-7-carboxamide 1,1-dioxide]",< 1000
3,"O=C(Nc1cc(F)c(F)c(F)c1)c1ccc2c(c1)S(=O)(=O)NC(C1CCNCC1)N2 (centres unmarked) [Example E32, 3-(piperidin-4-yl)-N-(3,4,5-trifluorophenyl)-3,4-dihydro-2H-benzo[e][1,2,4]thiadiazine-7-carboxamide 1,1-dioxide]",< 1000

# Same assay, conditions: Hepatitis B virus, compound at 0.5 µM, 96 hours, relative to non-treated reference, read-out: Anti HBV Activity (conc µM)
row,SMILES,inhibition at 0.5 µM [%]
1,"O=C(Nc1cc(F)c(F)c(F)c1)c1ccc2c(c1)S(=O)(=O)N1CCCC1N2 (centres unmarked) [Example E64, N-(3,4,5-trifluorophenyl)-2,3,10,10a-tetrahydro-1H-benzo[e]pyrrolo[1,2-b][1,2,4]thiadiazine-7-carboxamide 5,5-dioxide]",< 50
2,"O=C(Nc1cc(F)c(F)c(F)c1)c1ccc2c(c1)S(=O)(=O)N(C1CC=C(CO)CC1)C(=O)N2 (centres unmarked) [Example E134, 2-(4-(hydroxymethyl)cyclohex-3-en-1-yl)-3-oxo-N-(3,4,5-trifluorophenyl)-3,4-dihydro-2H-benzo[e][1,2,4]thiadiazine-7-carboxamide 1,1-dioxide]",> 50
3,"C[C@@H](O)C1Nc2ccc(C(=O)Nc3cc(F)c(F)c(F)c3)cc2S(=O)(=O)N1 (stereo partly drawn) [Example E24, 3-((R)-1-hydroxyethyl)-N-(3,4,5-trifluorophenyl)-3,4-dihydro-2H-benzo[e][1,2,4]thiadiazine-7-carboxamide 1,1-dioxide]",> 50
4,"O=C(Nc1cc(F)c(F)c(F)c1)c1ccc2c(c1)S(=O)(=O)N(c1cccnc1)C(=O)N2 [Example E128, 3-oxo-2-(pyridin-3-yl)-N-(3,4,5-trifluorophenyl)-3,4-dihydro-2H-benzo[e][1,2,4]thiadiazine-7-carboxamide 1,1-dioxide]",< 50
5,"O=C(Nc1ccc(F)c(Cl)c1)c1ccc2c(c1)S(=O)(=O)NCN2 [Example E65, N-(3-chloro-4-fluorophenyl)-3,4-dihydro-2H-benzo[e][1,2,4]thiadiazine-7-carboxamide 1,1-dioxide]",> 50
6,"O=C(Nc1cc(F)c(F)c(F)c1)c1ccc2c(c1)S(=O)(=O)NC1(N2)C(=O)Nc2ncccc21 (centres unmarked) [Example E57, 2'-oxo-N-(3,4,5-trifluorophenyl)-1',2'-dihydro-2H,4H-spiro[benzo[e][1,2,4]thiadiazine-3,3'-pyrrolo[2,3-b]pyridine]-7-carboxamide 1,1-dioxide]",> 50
7,"O=C(Nc1cc(F)c(F)c(F)c1)c1ccc2c(c1)S(=O)(=O)N([C@H]1C[C@@H](O)C1)CN2 [Example E126, Cis-2-(3-hydroxycyclobutyl)-N-(3,4,5-trifluorophenyl)-3,4-dihydro-2H-benzo[e][1,2,4]thiadiazine-7-carboxamide 1,1-dioxide]",< 50
8,"CN1C(C2CCNCC2)Nc2ccc(C(=O)Nc3cc(F)c(F)c(F)c3)cc2S1(=O)=O (centres unmarked) [Example E33, 2-methyl-3-(piperidin-4-yl)-N-(3,4,5-trifluorophenyl)-3,4-dihydro-2H-benzo[e][1,2,4]thiadiazine-7-carboxamide 1,1-dioxide]",< 50

# Same assay, conditions: Hepatitis B virus, compound at 1 µM, 96 hours, relative to non-treated reference, read-out: Anti HBV Activity (conc µM)
row,SMILES,inhibition at 1 µM [%]
1,"O=C(Nc1cc(F)c(F)c(F)c1)c1ccc2c(c1)S(=O)(=O)NC(c1ccn[nH]1)N2 (centres unmarked) [Example E46, 3-(1H-pyrazol-5-yl)-N-(3,4,5-trifluorophenyl)-3,4-dihydro-2H-benzo[e][1,2,4]thiadiazine-7-carboxamide 1,1-dioxide]",> 50
2,"O=C(Nc1cc(F)c(F)c(F)c1)c1ccc2c(c1)S(=O)(=O)NC1(COC1)CO2 [Example E140, N-(3,4,5-trifluorophenyl)-2H,4H-spiro[benzo[b][1,4,5]oxathiazepine-3,3'-oxetane]-8-carboxamide 1,1-dioxide]",< 50
3,"O=C(Nc1ccc(F)c(F)c1)c1ccc2c(c1)S(=O)(=O)NCN2 [Example E19, N-(3,4-difluorophenyl)-3,4-dihydro-2H-benzo[e][1,2,4]thiadiazine-7-carboxamide 1,1-dioxide]",> 50
4,"O=C(Nc1cc(F)c(F)c(F)c1)c1ccc2c(c1)S(=O)(=O)NC(c1ccc(Cl)nc1)N2 (centres unmarked) [Example E52, 3-(6-chloropyridin-3-yl)-N-(3,4,5-trifluorophenyl)-3,4-dihydro-2H-benzo[e][1,2,4]thiadiazine-7-carboxamide 1,1-dioxide]",> 50
5,"O=C(Nc1cc(F)c(F)c(F)c1)c1ccc2c(c1)S(=O)(=O)NC(c1cscn1)N2 (centres unmarked) [Example E41, 3-(thiazol-4-yl)-N-(3,4,5-trifluorophenyl)-3,4-dihydro-2H-benzo[e][1,2,4]thiadiazine-7-carboxamide 1,1-dioxide]",> 50
6,"O=C(Nc1cc(F)c(F)c(F)c1)c1ccc2c(c1)S(=O)(=O)NC1(CCOCC1)N2 [Example E13, N-(3,4,5-trifluorophenyl)-2',3',5',6'-tetrahydro-2H,4H-spiro[benzo[e] [1,2,4]thiadiazine-3,4'-pyran]-7-carboxamide1,1-dioxide]",> 50
7,"N#Cc1cc(NC(=O)c2ccc3c(c2)S(=O)(=O)NCN3)ccc1F [Example E91, N-(3-cyano-4-fluorophenyl)-3,4-dihydro-2H-benzo[e][1,2,4]thiadiazine-7-carboxamide 1,1-dioxide]",< 50
8,"O=C1Nc2ccc(C(=O)Nc3cc(F)c(F)c(F)c3)cc2S(=O)(=O)N1 [Example E75, 3-oxo-N-(3,4,5-trifluorophenyl)-3,4-dihydro-2H-benzo[e][1,2,4]thiadiazine-7-carboxamide 1,1-dioxide]",< 50
9,"O=C(Nc1cc(F)c(F)c(F)c1)c1ccc2c(c1)S(=O)(=O)N(C1CCNCC1)C(=O)N2 [Example E81, 3-oxo-2-(piperidin-4-yl)-N-(3,4,5-trifluorophenyl)-3,4-dihydro-2H-benzo[e][1,2,4]thiadiazine-7-carboxamide 1,1-dioxide]",> 50
10,"O=C(Nc1cc(F)c(F)c(F)c1)c1ccc2c(c1)S(=O)(=O)N1CCCC1CN2 (centres unmarked) [Example E106, N-(3,4,5-trifluorophenyl)-1,2,3,10,11,11a-hexahydrobenzo[f]pyrrolo[1,2-b][1,2,5]thiadiazepine-7-carboxamide 5,5-dioxide]",< 50
11,"O=C(Nc1cc(F)c(F)c(F)c1)c1ccc2c(c1)S(=O)(=O)N1CCC1CN2 (centres unmarked) [Example E107, N-(3,4,5-trifluorophenyl)-1,9,10,10a-tetrahydro-2H-azeto[1,2-b]benzo[f][1,2,5]thiadiazepine-6-carboxamide 4,4-dioxide]",< 50
12,"O=C(Nc1cc(F)c(F)c(F)c1)c1cc2c(cc1F)N=CNS2(=O)=O [Example E68, 6-fluoro-N-(3,4,5-trifluorophenyl)-2H-benzo[e][1,2,4]thiadiazine-7-carboxamide 1,1-dioxide]",< 50
13,"O=C(Nc1cc(F)c(F)c(F)c1)c1ccc2c(c1)S(=O)(=O)NCN2 [Example E1, N-(3,4,5-trifluorophenyl)-3,4-dihydro-2H-benzo[e][1,2,4]thiadiazine-7-carboxamide 1,1-dioxide]",> 50
14,"CC1Nc2ccc(C(=O)Nc3cc(F)c(F)c(F)c3)cc2S(=O)(=O)N1CCO (centres unmarked) [Example E63, 2-(2-hydroxyethyl)-3-methyl-N-(3,4,5-trifluorophenyl)-3,4-dihydro-2H-benzo[e][1,2,4]thiadiazine-7-carboxamide 1,1-dioxide]",< 50
15,"CC(C)OCCC1Nc2ccc(C(=O)Nc3cc(F)c(F)c(F)c3)cc2S(=O)(=O)N1 (centres unmarked) [Example E16, 3-(2-isopropoxyethyl)-N-(3,4,5-trifluorophenyl)-3,4-dihydro-2H-benzo[e][1,2,4]thiadiazine-7-carboxamide 1,1-dioxide]",> 50
